In ChEMBL document CHEMBL1137171, “D-piece modifications of the hemiasterlin analog HTI-286 produce potent tubulin inhibitors” (Bioorg Med Chem Lett, 2004):

Assays:
Settings in all cases: Homo sapiens
[1] = system: KB 3-1; assay: Compound was tested for cytotoxicity against paclitaxel sensitive KB-3-1 cell line; type: functional, cell-based
[2] = Compound was tested for cytotoxicity against paclitaxel resistant KB-V1 cell line expressing P-glycoprotein
[3] = system: KB; assay: Compound was tested for cytotoxicity against paclitaxel resistant KB-8-5 cell line expressing P-glycoprotein; type: functional, cell-based

| Compound | IC50 [1] [nM] | IC50 [2] [nM] | IC50 [3] [nM] |
| --- | --- | --- | --- |
| CN[C@H](C(=O)N[C@H](C(=O)N(C)[C@H](/C=C(\C)C(=O)N1CC=C[C@@H]1C(=O)OC)C(C)C)C(C)(C)C)C(C)(C)c1ccccc1 | 3.5 | 272 | 17 |
| CN[C@H](C(=O)N[C@H](C(=O)N(C)[C@H](/C=C(\C)C(=O)N1CCC[C@@H]1C(=O)O)C(C)C)C(C)(C)C)C(C)(C)c1cccc(C)c1 | 70 | > 3000 | 599 |
| CN[C@H](C(=O)N[C@H](C(=O)N(C)[C@H](/C=C(\C)C(=O)N1CCC[C@@H]1C(=O)OC)C(C)C)C(C)(C)C)C(C)(C)c1cccc(Cl)c1 | 2.5 | 362 | 6.2 |
| CN[C@H](C(=O)N[C@H](C(=O)N(C)[C@H](/C=C(\C)C(=O)CO)C(C)C)C(C)(C)C)C(C)(C)c1ccccc1 | 43 | 1130 | 68 |
| CN[C@H](C(=O)N[C@H](C(=O)N(C)[C@H](/C=C(\C)C(=O)c1ccccc1)C(C)C)C(C)(C)C)C(C)(C)c1ccccc1 | 725 | 1800 | 1330 |
| CN[C@H](C(=O)N[C@H](C(=O)N(C)[C@H](/C=C(\C)C(=O)c1nccs1)C(C)C)C(C)(C)C)C(C)(C)c1ccccc1 | 582 | 1790 | 565 |
| CN[C@H](C(=O)N[C@H](C(=O)N(C)[C@H](/C=C(\C)CO)C(C)C)C(C)(C)C)C(C)(C)c1ccccc1 | 454 | 1590 | 447 |
| CN[C@H](C(=O)N[C@H](C(=O)N(C)[C@H](/C=C(\C)C(=O)N1CCC[C@@H]1C(=O)OC)C(C)C)C(C)(C)C)C(C)(C)c1ccccc1 | 1.5 | 291 | 7.3 |
| CN[C@H](C(=O)N[C@H](C(=O)N(C)[C@H](/C=C(\C)C(C)O)C(C)C)C(C)(C)C)C(C)(C)c1ccccc1 (some centres not stated) | 63 | 1460 | 172 |
| CN[C@H](C(=O)N[C@H](C(=O)N(C)[C@H](/C=C(\C)C(=O)N1CCC[C@H]1C(=O)O)C(C)C)C(C)(C)C)C(C)(C)c1ccccc1 | 515 | > 3000 | 1580 |
| CN[C@H](C(=O)N[C@H](C(=O)N(C)[C@H](C(=O)O)C(C)C)C(C)(C)C)C(C)(C)c1ccccc1 | > 3000 | > 3000 | > 3000 |
| CN[C@H](C(=O)N[C@H](C(=O)N(C)[C@H](/C=C(\C)C(=O)N1CCCC[C@@H]1C(=O)O)C(C)C)C(C)(C)C)C(C)(C)c1ccccc1 | 64 | > 3000 | 270 |
| CN[C@H](C(=O)N[C@H](C(=O)N(C)[C@H](/C=C/C(=O)O)C(C)C)C(C)(C)C)C(C)(C)c1ccccc1 | 191 | > 3000 | 479 |
| CN[C@H](C(=O)N[C@H](C(=O)N(C)[C@H](/C=C(\C)C(=O)N1CCC[C@@H]1C(=O)O)C(C)C)C(C)(C)C)C(C)(C)c1ccc(C)c(C)c1 | 74 | > 3000 | 519 |
| CN[C@H](C(=O)N[C@H](C(=O)N(C)[C@H](/C=C(\C)C(=O)N1CCC[C@@H]1C(=O)O)C(C)C)C(C)(C)C)C(C)(C)c1cccc(Cl)c1 | 62 | > 3000 | 180 |
| CN[C@H](C(=O)N[C@H](C(=O)N(C)[C@H](/C=C(\C)c1ccccc1)C(C)C)C(C)(C)C)C(C)(C)c1ccccc1 | > 3000 | > 3000 | > 3000 |
| CN[C@H](C(=O)N[C@H](C(=O)N(C)[C@H](/C=C1/C(=O)NC(=O)N1C)C(C)C)C(C)(C)C)C(C)(C)c1ccccc1 | 5.1 | 230 | 9.9 |
| CN[C@H](C(=O)N[C@H](C(=O)N(C)[C@H](/C=C(\C)C(=O)N1CCC[C@@H]1C(=O)OC)C(C)C)C(C)(C)C)C(C)(C)c1cccc(C)c1 | 1.6 | 275 | 6.2 |
| CN[C@H](C(=O)N[C@H](C(=O)N(C)[C@H](/C=C(\C)C(O)c1nccs1)C(C)C)C(C)(C)C)C(C)(C)c1ccccc1 (some centres not stated) | 13 | 364 | 19 |
| CN[C@H](C(=O)N[C@H](C(=O)N(C)[C@H](/C=C(/C)C(=O)O)C(C)C)C(C)(C)C)C(C)(C)c1ccccc1 | 28 | 2630 | 58 |

| Compound | IC50 [1] [nM] | IC50 [2] [nM] | IC50 [3] [nM] |
| --- | --- | --- | --- |
| CN[C@H](C(=O)N[C@H](C(=O)N(C)[C@H](/C=C1\NC(=O)NC1=O)C(C)C)C(C)(C)C)C(C)(C)c1ccccc1 | 1070 | > 3000 | 1740 |
| CN[C@H](C(=O)N[C@H](C(=O)N(C)[C@H](/C=C(\C)C(C)=O)C(C)C)C(C)(C)C)C(C)(C)c1ccccc1 | 403 | 2360 | 664 |
| CN[C@H](C(=O)N[C@H](C(=O)N(C)[C@H](/C=C(\C)C(=O)c1ncc[nH]1)C(C)C)C(C)(C)C)C(C)(C)c1ccccc1 | 218 | > 3000 | 1360 |
| CN[C@H](C(=O)N[C@H](C(=O)N(C)[C@H](/C=C(\C)C(=O)N1CCCC[C@@H]1C(=O)OC)C(C)C)C(C)(C)C)C(C)(C)c1ccccc1 | 5.2 | 150 | 17 |
| CN[C@H](C(=O)N[C@H](C(=O)N(C)[C@H](/C=C(\C)C(=O)N1CCC[C@@H]1C(=O)NCCc1ccccc1)C(C)C)C(C)(C)C)C(C)(C)c1ccccc1 | 6.4 | 1670 | 21 |
| CN[C@H](C(=O)N[C@H](C(=O)N(C)[C@H](/C=C(\C)C=O)C(C)C)C(C)(C)C)C(C)(C)c1ccccc1 | 454 | 1590 | 447 |
| CN[C@H](C(=O)N[C@H](C(=O)N(C)[C@H](/C=C(\C)C(=O)N1CC(O)C[C@@H]1C(=O)OC)C(C)C)C(C)(C)C)C(C)(C)c1ccccc1 (some centres not stated) | 3.5 | > 3000 | 116 |
| CN[C@H](C(=O)N[C@H](C(=O)N(C)[C@H](/C=C(\C)[C@H](O)c1ccccc1)C(C)C)C(C)(C)C)C(C)(C)c1ccccc1 | 124 | 632 | 186 |
| CN[C@H](C(=O)N[C@H](C(=O)N(C)[C@H](/C=C(C)/C=C(\C)C(=O)O)C(C)C)C(C)(C)C)C(C)(C)c1ccccc1 | 27 | 1580 | 53 |
| CN[C@H](C(=O)N[C@H](C(=O)N(C)[C@H](C(=O)N1CCC[C@@H]1C(=O)O)C(C)C)C(C)(C)C)C(C)(C)c1ccccc1 | > 3000 | > 3000 | > 3000 |
| CN[C@H](C(=O)N[C@H](C(=O)N(C)[C@H](/C=C(\C)C(=O)N1CCC[C@@H]1C(=O)OC)C(C)C)C(C)(C)C)C(C)(C)C1CCCCC1 | 3.7 | 493 | 16 |
| CN[C@H](C(=O)N[C@H](C(=O)N(C)[C@H](/C=C(\C)C(=O)N1CC=C[C@@H]1C(=O)O)C(C)C)C(C)(C)C)C(C)(C)c1ccccc1 | 58 | > 3000 | 184 |
| CN[C@H](C(=O)N[C@H](C(=O)N(C)[C@H](/C=C(\C)C(=O)N1CCC[C@@H]1C(=O)OC)C(C)C)C(C)(C)C)C(C)(C)c1ccc(C)c(C)c1 | 1.9 | 363 | 15 |
| CN[C@H](C(=O)N[C@H](C(=O)N(C)[C@H](/C=C(\C)C(=O)N1CC(O)C[C@@H]1C(=O)O)C(C)C)C(C)(C)C)C(C)(C)c1ccccc1 (some centres not stated) | 184 | > 3000 | 1850 |
| CN[C@H](C(=O)N[C@H](C(=O)N(C)[C@H](/C=C(\C)C(=O)N1CCC[C@H]1C(=O)OC)C(C)C)C(C)(C)C)C(C)(C)c1ccccc1 | 16 | 1100 | 51 |
| CN[C@H](C(=O)N[C@H](C(=O)N(C)[C@H](/C=C/c1nn[nH]n1)C(C)C)C(C)(C)C)C(C)(C)c1ccccc1 | 1150 | > 3000 | 1820 |
| CN[C@H](C(=O)N[C@H](C(=O)N(C)[C@H](/C=C(\C)C(=O)N1CCC[C@@H]1C(=O)O)C(C)C)C(C)(C)C)C(C)(C)c1ccccc1 | 62 | > 3000 | 205 |
| CN[C@H](C(=O)N[C@H](C(=O)N(C)[C@H](/C=C(\C)C(O)c1ccccc1)C(C)C)C(C)(C)C)C(C)(C)c1ccccc1 (single isomer, unassigned) | 16 | 190 | 22 |
| CN[C@H](C(=O)N[C@H](C(=O)N(C)[C@H](/C=C(\C)C(=O)O)C(C)C)C(C)(C)C)C(C)(C)c1ccccc1 [TALTOBULIN] | 0.96 | 77 | 2.3 |
